Read-outs that look alike come from different tables or passages of the source.
Tested on: erythrocytes infected with 3D7 trophozoites
Format: cell-based, Plasmodium falciparum

## COc1ccc2c(c1)OC(O)(C(F)(F)C(F)(F)F)CC2=O (stereo not shown) [MMV007839]
6 μM
  Intracellular NADH level, treated vs untreated: decreased
  Intracellular orotate level, treated vs untreated: decreased
  Intracellular orotidine-5-phosphate level, treated vs untreated: decreased
  Intracellular pyruvate level, treated vs untreated: significant elevation
  Intracellular sn-glycerol-3-phosphate level, treated vs untreated: significant elevation
6 μM, at each time point (1 h, 3 h, 6 h)
  Increase in lactate abundance in treated relative to untreated infected erythrocytes: 6 fold
1hr
  1-3 (2-3)-Bisphopshateglycerate, Average: 0.8283
  2-Hydroxyglutarate, Average: -0.2432
  2-Ketoglutarate, Average: -0.436
  3-Phoshoglycerate, Average: 0.004248
  3-Phospho-serine, Average: -0.2778
  4-Aminobutanoate, Average: 1.193
  5-Phosphoribosyl-Pyrophosphate, Average: 0.3507
  6-Phosphogluconate, Average: -0.04985
  ADP, Average: -0.09347
  AMP, Average: 0.1805
  ATLS, Average: 0.06136
  ATP, Average: -0.05715
  Acetyl-CoA, Average: -0.4647
  Acetyl-L-alanine, Average: 0.1907
  Adenine, Average: -0.6208
  Arginine, Average: 0.574
  Asparagine, Average: 0.04802
  Aspartate, Average: 0.001665
  CDP, Average: -0.01089
  CDP-ethanolamine, Average: 0.2765
  CMP, Average: 0.1684
  CTP, Average: -0.2804
  Cholesteryl sulfate, Average: -0.2972
  Citrate, Average: -0.1229
  CoA, Average: -0.4384
  Cyclic AMP, Average: -0.8135
  Cytidine, Average: -0.7749
  DALT, Average: -0.5028
  DEVG, Average: 0.001555
  DGLA, Average: -0.4525
  DLS, Average: -0.423
  Deoxycytidine, Average: 1.92
  Dihydroorotate, Average: -0.5278
  ESFG, Average: 0.4045
  EVGG, Average: 0.01776
  Erythrose 4-Phosphate, Average: -0.3514
  FAD, Average: -0.08791
  FMN, Average: -0.2425
  Farnesyl diphosphate, Average: -0.0002912
  Folate, Average: -0.2316
  Fructose-1-6-Bisphosphate, Average: 1.122
  Fructose-6-Phosphate, Average: 0.08818
  GDP, Average: -0.6846
  GDP-mannose, Average: 0.01571
  GMP, Average: -1.125
  GTP, Average: -0.5732
  Geranylgeranyl pyrophosphate, Average: -0.5786
  Glucono-1-4-Lactone, Average: 1.593
  Glucose-6-Phosphate, Average: -0.1863
  Glutamate, Average: 0.1005
  Glutamine, Average: 0.7703
  Glutathione Disulfide, Average: 0.1943
  Glutathione, Average: -0.1919
  Glyceraldehyde 3-Phosphate, Average: -0.7606
  Glycerone Phosphate, Average: 0.5926
  HLD, Average: -0.3486
  HVDD, Average: -0.6691
  Histidine, Average: 0.5758
  Homoserine, Average: 0.3097
  Hydroxy-L-proline, Average: 0.2443
  Hypoxanthine, Average: 0.3704
  IDP, Average: -0.1758
  IMP, Average: -0.02277
  Inosine, Average: 0.5137
  Isoleucine, Average: 0.3056
  LD, Average: 0.3825
  Lactate, Average: 2.358
  Leucine, Average: 0.1553
  Lysine, Average: 1.68
  Malate, Average: 0.1358
  Mannitol, Average: 0.0108
  Methionine, Average: 0.2615
  Myristic acid, Average: 0.2261
  N-Acetyl-glutamate, Average: -0.007377
  N-Carbamoyl-L-Aspartate, Average: -1.378
  NAD+, Average: 0.03204
  NADH, Average: -1.36
  NADP+, Average: -0.2617
  Ornithine, Average: 0.2172
  Orotate, Average: -1.216
  Orotidine 5-Phosphate, Average: -1.5
  Orotidine, Average: -0.4366
  PAEF, Average: -0.4364
  PD, Average: 0.2765
  PDAV, Average: 0.344
  PE, Average: 1.21
  PEE, Average: 0.2418
  PHF, Average: 1.069
  PPVQ, Average: 0.02129
  PVNF, Average: -0.3384
  PVQ, Average: 0.8749
  PVQA, Average: -0.7385
  Pantothenate, Average: -0.01312
  Phenylalanine, Average: 0.1979
  Phosphoenolpyruvate, Average: 0.299
  Pipecolate, Average: 0.4539
  Proline, Average: 0.1646
  Pyridoxine, Average: 0.1656
  Pyruvate, Average: 1.42
  Ribose-5-Phosphate, Average: 0.9115
  S-Adenosyl-L-homocysteine, Average: -0.1282
  SDGLA, Average: -0.148
  SFGD, Average: -0.0354
  Sedoheptulose-1/7-Phosphate, Average: 0.1578
  Serine, Average: 0.004434
  Succinate Semialdehyde, Average: -0.3802
  Succinate, Average: 0.4975
  TNVK, Average: -0.9736
  Threonine, Average: 0.4202
  Tryptophan, Average: 0.09509
  Tyrosine, Average: 0.1697
  UDP, Average: -0.1565
  UDP-N-acetyl-D-glucosamine, Average: 0.0845
  UDP-glucose, Average: -0.08513
  UMP, Average: -0.3602
  Uracil, Average: -0.4869
  Valine, Average: 0.1364
  Xanthine, Average: 0.3309
  dADP, Average: -0.3244
  dATP, Average: 0.05147
  dCDP, Average: 0.3024
  dGMP, Average: 0.08489
  dTMP, Average: -0.02247
  dTTP, Average: 0.2046
  dUMP, Average: 1.26
  myo-Inositol, Average: -0.07002
  sn-Glycerol 3-Phosphate, Average: 1.379
  sn-glycero-3-Phospho-1-inositol, Average: -0.128
3hr
  1-3 (2-3)-Bisphopshateglycerate, Average: 0.8355
  2-Hydroxyglutarate, Average: -0.6103
  2-Ketoglutarate, Average: -0.8232
  3-Phoshoglycerate, Average: 0.07426
  3-Phospho-serine, Average: -0.4035
  4-Aminobutanoate, Average: 0.8488
  5-Phosphoribosyl-Pyrophosphate, Average: 0.5077
  6-Phosphogluconate, Average: -0.2282
  ADP, Average: -0.7166
  AMP, Average: -0.5704
  ATLS, Average: -0.2347
  ATP, Average: -0.2177
  Acetyl-CoA, Average: -0.7235
  Acetyl-L-alanine, Average: -0.3599
  Adenine, Average: -0.8446
  Arginine, Average: 0.2396
  Asparagine, Average: -0.1753
  Aspartate, Average: -0.3736
  CDP, Average: -0.5752
  CDP-ethanolamine, Average: 0.02366
  CMP, Average: -0.08882
  CTP, Average: -0.3119
  Cholesteryl sulfate, Average: -0.1335
  Citrate, Average: -0.1028
  CoA, Average: -0.556
  Cyclic AMP, Average: -0.7854
  Cytidine, Average: -0.2914
  DALT, Average: -0.8981
  DEVG, Average: -0.08263
  DGLA, Average: -0.7349
  DLS, Average: -0.6175
  Deoxycytidine, Average: 1.594
  Dihydroorotate, Average: -1.064
  ESFG, Average: -0.07747
  EVGG, Average: -0.1694
  Erythrose 4-Phosphate, Average: -0.2579
  FAD, Average: -0.4239
  FMN, Average: -0.4985
  Farnesyl diphosphate, Average: -0.04123
  Folate, Average: -0.3602
  Fructose-1-6-Bisphosphate, Average: 1.146
  Fructose-6-Phosphate, Average: 0.05598
  GDP, Average: -1.202
  GDP-mannose, Average: -0.4414
  GMP, Average: -1.665
  GTP, Average: -0.7051
  Geranylgeranyl pyrophosphate, Average: -0.6827
  Glucono-1-4-Lactone, Average: 1.992
  Glucose-6-Phosphate, Average: -0.3489
  Glutamate, Average: -0.07518
  Glutamine, Average: 0.8027
  Glutathione Disulfide, Average: -0.1266
  Glutathione, Average: -0.02749
  Glyceraldehyde 3-Phosphate, Average: -0.5897
  Glycerone Phosphate, Average: 0.4029
  HLD, Average: -0.9223
  HVDD, Average: -1.392
  Histidine, Average: 0.6908
  Homoserine, Average: 0.249
  Hydroxy-L-proline, Average: 0.1081
  Hypoxanthine, Average: 0.2683
  IDP, Average: 0.1036
  IMP, Average: -0.04113
  Inosine, Average: 0.2492
  Isoleucine, Average: 0.01345
  LD, Average: 0.008648
  Lactate, Average: 2.632
  Leucine, Average: -0.1293
  Lysine, Average: 0.8307
  Malate, Average: -0.2233
  Mannitol, Average: -0.2308
  Methionine, Average: -0.1652
  Myristic acid, Average: -0.3456
  N-Acetyl-glutamate, Average: -0.8123
  N-Carbamoyl-L-Aspartate, Average: -1.502
  NAD+, Average: 0.03216
  NADH, Average: -1.72

Source: PMC5298231, “The Malaria Parasite's Lactate Transporter PfFNT Is the Target of Antiplasmodial Compounds Identified in Whole Cell Phenotypic Screens” (PLoS Pathogens, 2017)
